According to PMC6420151 (Journal of medicinal chemistry, 2017):

Experiments:
Assay type in all cases: biochemical
MMP-13 [1] = target: T1, MMP-13 (Homo sapiens, UniProt P45452)
MMP-2 = target: T2, MMP-2 (Homo sapiens, UniProt P08253); test: MMP-2 enzyme assay with fTHP substrates; conditions: 200 nM
T2 sequence (P08253 110-660): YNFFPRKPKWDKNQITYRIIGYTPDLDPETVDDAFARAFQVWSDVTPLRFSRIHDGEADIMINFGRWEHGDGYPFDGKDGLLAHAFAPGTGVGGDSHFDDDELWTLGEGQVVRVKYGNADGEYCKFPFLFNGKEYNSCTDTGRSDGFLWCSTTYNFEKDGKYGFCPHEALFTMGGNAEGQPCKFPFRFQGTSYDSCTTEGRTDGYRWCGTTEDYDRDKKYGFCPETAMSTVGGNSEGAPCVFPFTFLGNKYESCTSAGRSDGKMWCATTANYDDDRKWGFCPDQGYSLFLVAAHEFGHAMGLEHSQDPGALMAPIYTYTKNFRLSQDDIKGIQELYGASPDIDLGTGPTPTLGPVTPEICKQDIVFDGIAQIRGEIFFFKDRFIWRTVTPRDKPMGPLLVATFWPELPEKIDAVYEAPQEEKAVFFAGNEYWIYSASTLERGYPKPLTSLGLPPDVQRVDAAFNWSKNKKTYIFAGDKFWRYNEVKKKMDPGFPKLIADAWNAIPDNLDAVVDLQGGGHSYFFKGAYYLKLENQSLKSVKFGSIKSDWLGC

MMP-8 = MMP-8 (Homo sapiens, UniProt P22894); test: MMP-8 enzyme assay with fTHP substrates; conditions: 200 nM
Sequence of MMP-8 (P22894 101-467, species assumed): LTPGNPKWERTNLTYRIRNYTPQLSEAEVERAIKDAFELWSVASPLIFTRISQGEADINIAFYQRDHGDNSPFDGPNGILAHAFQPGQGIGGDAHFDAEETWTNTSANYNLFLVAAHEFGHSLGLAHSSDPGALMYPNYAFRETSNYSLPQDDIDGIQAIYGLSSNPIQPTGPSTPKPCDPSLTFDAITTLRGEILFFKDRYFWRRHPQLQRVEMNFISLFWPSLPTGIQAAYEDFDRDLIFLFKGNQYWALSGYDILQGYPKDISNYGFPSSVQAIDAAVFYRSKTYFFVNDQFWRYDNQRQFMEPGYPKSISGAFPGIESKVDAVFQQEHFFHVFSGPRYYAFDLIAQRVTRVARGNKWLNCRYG

MMP-13 [2] = target: T1, MMP-13; test: In vitro type II collagen cleavage assay; conditions: 20 μM; intact type II collagen remaining after 24 h at 37 °C

CNC(=O)[C@H](NC(=O)c1ccc(-c2ccc(CSc3nc4c(c(=O)[nH]3)CCC4)cc2)o1)C(C)C [(R)-17a]
loss of inhibition activity vs MMP-13 compared to the (S)-enantiomer (MMP-13 [1]; D-valine analogue compared to L-valine analogue): ca. 40 fold

CNC(=O)[C@@H](NC(=O)c1ccc(-c2ccc(CSc3nc4c(c(=O)[nH]3)CCC4)cc2)o1)C(C)C [(S)-17a]
improvement of MMP-13 inhibition potency compared to 5 (MMP-13 [1]; compared to starting inhibitor 5): ~300 fold
inhibition of MMP-2 in single-dose assay (MMP-2): moderately active
inhibition of MMP-8 in single-dose assay (MMP-8): moderately active

Cc1ccc(CSc2nc(O)c3c(n2)CCC3)cc1 [Compound 5]
inhibition of collagenolysis (type II collagen cleavage by MMP-13) (MMP-13 [2]): nearly inactive
